Source: patent publication US20190177421A1, “CHIMERIC ANTIGEN RECEPTORS AND METHODS FOR USE” (Poseida Therapeutics, Inc., priority 2016, published 2019)
Where two headings read alike, the source gives them in different places.

Tests used:
[1] = cited from earlier work
cells [2] = conditions: cited from earlier work
[3] = test system: human pan T-cells containing the iC9 construct; experiment: iC9 safety switch test: viability by flow cytometry using 7-AAD; type: cell-based; conditions: 24 hours incubation, 0-1000 nM tested, cells with iC9 safety switch
Excerpt: Human pan T-cells were nucleofected using an Amaxa 4D nucleofector with one of four piggyBac transposons. Modified T cells receiving the “mock” condition were nucleofected with an empty piggyBac transposon. Modified T cells received either a piggyBac transposon containing a therapeutic agent alone (a sequence encoding a CARTyrin) or a piggyBac transposon containing an integrated iC9 sequence and a therapeutic agent (a sequence encoding a CARTyrin).
To test the iC9 safety switch, each of the four modified T cells were incubated for 24 hours with 0, 0.1 nM, 1 nM, 10 nM, 100 nM or 1000 nM AP1903 (an induction agent for […]). Viability was assessed by flow cytometry using 7-aminoactinomycin D (7-AAD), a fluorescent intercalator, as a marker for cells undergoing apoptosis.

cells [4] = experiment: Amount of AP1903 needed in vitro for effective signaling of cells; type: cell-based; conditions: calculated with 1600 Da MW
Experimental: The fixed dose of AP1903 for injection used, for example, may be 0.4 mg/kg intravenously infused over 2 hours. The amount of AP1903 needed in vitro for effective signaling of cells is 10-100 nM (1600 Da MW). This equates to 16-160 μg/L or 0.016-1.6 μg/kg (1.6-160 μg/kg). Doses up to 1 mg/kg were well-tolerated in the Phase I study of AP1903 described above. Therefore, 0.4 mg/kg may be a safe and effective dose of AP1903 for this Phase I study in combination with the therapeutic cells.

human primary T cells = experiment: In vitro CARTyrin surface expression in T cells; type: cell-based; conditions: following lentiviral transduction of human primary T cells
Excerpt: Characterization further assays correlations with functionality.

tumor = experiment: In vivo tumor challenge study in mice
Excerpt: FIG. 6 is a schematic diagram depicting an in vivo tumor challenge study timeline using the A08 CARTyrin in mice.
FIG. 6 depicts the treatment schedule for an in vivo study in mice using the A08 CARTyrin. […] FIG. 8 provides a series of photographs further illustrating tumor burden in control animal as well as those treated with P-BCMA-101.

Experimental for BCMA+ tumor cells: Functionality of CARTyrin-expressing T cells was measured by degranulation against tumor lines.

| Compound | plasma level as % of maximal concentration ([1]; 0.5 hours post-dose) | plasma level as % of maximal concentration ([1]; 2 hours post-dose) [%] | plasma level as % of maximal concentration ([1]; 10 hours post-dose) [%] | well-tolerated doses ([1]; Phase I study, IV) | mean Cmax ([1]; single doses infused IV over 2 hours, 0.01-1.0 mg/kg dose range, plasma) [ng/mL] | amount needed in vitro for effective signaling of cells (cells [2]) [nM] | concentration at which apoptosis is induced [3] [nM] | amount needed for effective signaling, equated to dose (cells [4]) [µg/kg] | amount needed for effective signaling, equated to mass concentration (cells [4]) [µg/L] | cytotoxic function (e.g. proliferation) (BCMA+ tumor cells) | surface expression (human primary T cells) | tumor burden assessed by M-protein abundance (tumor; day 21) | tumor burden assessed by M-protein abundance (tumor; day 21, listed as P-BCMA-101) | tumor burden compared to controls (tumor; photographs) | survival (tumor; to day 21) [%] |
| --- | --- | --- | --- | --- | --- | --- | --- | --- | --- | --- | --- | --- | --- | --- | --- |
| CC[C@H](C(=O)N1CCCC[C@H]1C(=O)O[C@H](CCc1ccc(OC)c(OC)c1)c1cccc(OCC(=O)NCCNC(=O)COc2cccc([C@@H](CCc3ccc(OC)c(OC)c3)OC(=O)[C@@H]3CCCCN3C(=O)[C@@H](CC)c3cc(OC)c(OC)c(OC)c3)c2)c1)c1cc(OC)c(OC)c(OC)c1 (relative stereo) [AP1903, 2-Piperidinecarboxylic acid, 1-[(2S)-1-oxo-2-(3,4,5-trimethoxyphenyl)butyl]-, 1,2-ethanediylbis[imino(2-oxo-2,1-ethanediyl)oxy-3,1-phenylene[(1R)-3-(3,4-dimethoxyphenyl)propylidene]]ester, [2S-[1(R*),2R*[S*[S*[1(R*),2R*]]]]]-(9Cl)] | approximately 18% | ~7 | ~1 | up to 1 mg/kg | 10 to 1275 | 10 to 100 | ≤ 0.1 | 0.016 to 1.6 | 16 to 160 | – | – | – | – | – | – |
| A08 CARTyrin: anti-BCMA CARTyrin (CAR comprising a Centyrin), SEQ ID NO: 21; P-BCMA-101 encodes the A08 anti-BCMA CARTyrin | – | – | – | – | – | – | – | – | – | strong cytotoxic function | high levels of surface expression | no detectable M-protein | not detectable | reduce tumor burden | 100 |
